What was measured:
human keratinocytes [1] = assay: Single cell migration assay, keratinocytes (clenbuterol, OA); type: cell-based
Experimental: All single cell migration assays were performed on cells plated on glass cover-slips inserted into 35 mm plastic dishes (MatTek Corp., Ashland, Mass.) that had been coated for 1 hour at 37° C. with 60 μg/ml collagen L Cells were plated onto the collagen-coated glass cover-slips at a density of 250 cells/mm^2 for 3-6 hours at 37° C. Cells were either untreated (control), pre-treated with 10 nM okadaic acid (OA) (10 nM) for 45 minutes prior to the addition of OA (10 nM) and clenbuterol (1 μM) (OA/Clen) or treated with either OA or clenbuterol (1 μM) alone at time 0. The dishes were inserted into metal plates, maintained at 37° C., on inverted Nikon Diaphot microscopes to monitor single cell migration. Time-lapse images of the cell migratory response were digitally captured every 10 minutes over a one-hour period by Q-Imaging Retiga-EX cameras (Burnaby, BC, Canada) controlled by a custom automation written in Improvision Open Lab software (Lexington, Mass.) on a Macintosh G4. After each cell's center of mass was tracked using the Open Lab software, migration speed and distance were calculated and imported to Excel (Microsoft Corporation, Redmond, Wash.). Significance was taken as p<0.01, using Student's t test (unpaired) to compare the means of the control and β-AR agonist-treated cell populations.
Keratinocytes were plated onto collagen-coated glass cover-slips at a concentration of 250 cells/mm^2 in KGM for 3-6 hours at 37° C. The migration of each single cell was monitored over a one-hour period, and the results were analyzed in excel as described. The speed of migration ([…]) is represented graphically in FIG. 1 Panel C, control n=57, clenbuterol n=57, OA n=60, OA-clenbuterol n=44. The data are representative of three independent experiments with at least two different keratinocyte strains. * P<0.01 between β-AR agonist and controls; #P<0.01 between OA-clenbuterol and clenbuterol alone.

human keratinocytes [2] = assay: Keratinocyte proliferation assay (β-AR agonist, OA); type: cell-based
Experimental: Keratinocytes were released from the tissue culture plate by treatment with 0.25% trypsin/EDTA (Gibco, Grand Island, N.Y.), resuspended in KGM and counted using a haemocytometer. Cells were either untreated or pre-treated with okadaic acid (OA) (10 nM) for 45 minutes prior to β-AR agonist (1 μM) addition. 5×10^4 cells were plated per well in a 12 well plate in triplicate in the presence or absence of 1 μM β-AR agonist, 10 nM OA or both. Triplicate wells were harvested and counted on days 2, 4, 6, 8. The medium was changed every day. Significance was taken as p<0.01, using Student's t test (unpaired) to compare the means of the cell populations.
5×10^4 […] keratinocytes were plated per well in a 12 well plate in triplicate in the presence or absence of β-AR agonist (1 μM) (FIG. 2 Panel A; control represented by circles, 1 μM β-AR agonist by squares), or pre-treated with 10 nM OA for 30 minutes prior to the addition of OA alone or both OA and β-AR agonist, (FIG. 2 Panel B; OA represented by X's and OA/β-AR agonist by stars). Cells were harvested and counted on days 2, 4, 6, 8 as described. The data are representative of three independent experiments with at least two different keratinocyte strains. Values plotted are means+/−SEM. *P<0.01 between β-AR agonist and controls.

human keratinocytes [3] = assay: Immunofluorescent staining of actin and vinculin, keratinocytes (β-AR agonist, OA); type: cell-based
Experimental: (§1) Sterile glass cover-slips (Fisher Scientific, Pittsburgh, Pa.) were transferred into 12 well dishes and collagen-coated with 60 μg/ml collagen I in KGM for 1 hour at 37° C. Cover-slips were washed three times with KGM and 3×10^4 cells were added per well and allowed to attach overnight. Cells were untreated, treated with 1 μM β-AR agonist for 15 minutes, OA (10 nM) for 45 minutes, or pre-treated with OA (10 nM) for 30 minutes prior to the addition of 1 μM β-AR agonist for 15 minutes. All steps were performed at room temperature unless otherwise noted. Cover slips were washed twice in PBS and fixed for 10 minutes in 4% paraformaldehyde. Cover-slips were washed twice in PBS between each step. Cells were permeabilized for 5 minutes with 0.1% Triton-X-100/PBS, blocked with 5% goat serum/PBS for 20 minutes, primary monoclonal anti-vinculin antibody (Sigma, St. Louis, Mo.) or anti-phospho-ERK antibody (Cell Signaling Technology, Beverly, Mass.) were added drop-wise in 1% goat serum/PBS (1:100) and incubated for 1 hour at 37° C. A goat anti-mouse cy3 (Jackson labs, West Grove, Pa.) (1:100) antibody was then added in 1% goat serum/PBS for 1 hour at 37° C. Alexa 488-phalloidin (Molecular Probes, Eugene, Oreg.) (1:40) in PBS was added to the vinculin-stained cover-slips for 20 minutes. […]

phospho-ERK = assay: Phospho-ERK immunolocalization in keratinocytes; type: cell-based, human
Experimental: as §1

[4] = OA 10 nM pre-treatment prior to 1 μM β-AR agonist

Q: For C=C1[C@@H](O)[C@@H]2O[C@]3(CC[C@H](/C=C/[C@@H](C)[C@@H]4CC(C)=C[C@@]5(O[C@H](C[C@@](C)(O)C(=O)O)CC[C@H]5O)O4)O3)CC[C@H]2O[C@@H]1[C@@H](O)C[C@H](C)[C@H]1O[C@@]2(CCCCO2)CC[C@H]1C [OA, okadaic acid], which “effect on keratinocyte migration” value (human keratinocytes [1]; OA 10 nM alone) is on record?
A: Its value is “no effect”.

Q: What about the “effect on clenbuterol-induced reduction in speed” value (human keratinocytes [1]; OA 10 nM pre-treatment, then OA plus 1 μM clenbuterol) of the same compound?
A: The value was “completely prevents”.

Q: What about the “effect on keratinocyte proliferation” value (human keratinocytes [2]; OA 10 nM alone) of the same compound?
A: The value was “no effect”.

Q: What about the “effect on β2-AR-mediated decrease in proliferation” value (human keratinocytes [2]; OA 10 nM pre-treatment, then OA plus 1 μM β-AR agonist) of the same compound?
A: Its value is “completely prevents”.

Q: What about the “effect on cytoskeletal conformation” value (human keratinocytes [3]; OA 10 nM alone, 45 minutes) of the same compound?
A: The value was “no effect”.

Q: And the “effect on β2-AR-mediated change in cytoskeletal conformation” value (human keratinocytes [3]; [4])?
A: The value was “prevents”.

Q: And the “effect on level of ERK phosphorylation or localization” value (phospho-ERK; OA 10 nM alone)?
A: The value was “no effect”.

Q: What about the “effect on agonist-induced loss of lamellipodial phospho-ERK localization and nuclear/peri-nuclear decrease” value (phospho-ERK; [4]) of the same compound?
A: The value was “prevents”.
